Test results: patent US20210283261A1, “Compositions and Methods for Treating ALK-Mediated Cancer” (ICAHN SCHOOL OF MEDICINE AT MOUNT SINAI, priority 2017, published 2021)

molecular target: T1, ALK fusion protein (Homo sapiens, UniProt Q9UM73); assay: Western blot of ALK fusion protein levels in NCI-H3122 cells; type: cell-based; details: NCI-H3122, NCI-H3122 cells, 500 nM, Western blot; read-out: ALK fusion protein degradation, NCI-H3122 (500 nM)
T1 construct: endogenous in cells; host or cells: NCI-H3122; the other entry of the earlier key: EML4 (Q9HC35, Echinoderm microtubule-associated protein-like 4)
T1 sequence (Q9UM73 with tags, fused parts or gaps): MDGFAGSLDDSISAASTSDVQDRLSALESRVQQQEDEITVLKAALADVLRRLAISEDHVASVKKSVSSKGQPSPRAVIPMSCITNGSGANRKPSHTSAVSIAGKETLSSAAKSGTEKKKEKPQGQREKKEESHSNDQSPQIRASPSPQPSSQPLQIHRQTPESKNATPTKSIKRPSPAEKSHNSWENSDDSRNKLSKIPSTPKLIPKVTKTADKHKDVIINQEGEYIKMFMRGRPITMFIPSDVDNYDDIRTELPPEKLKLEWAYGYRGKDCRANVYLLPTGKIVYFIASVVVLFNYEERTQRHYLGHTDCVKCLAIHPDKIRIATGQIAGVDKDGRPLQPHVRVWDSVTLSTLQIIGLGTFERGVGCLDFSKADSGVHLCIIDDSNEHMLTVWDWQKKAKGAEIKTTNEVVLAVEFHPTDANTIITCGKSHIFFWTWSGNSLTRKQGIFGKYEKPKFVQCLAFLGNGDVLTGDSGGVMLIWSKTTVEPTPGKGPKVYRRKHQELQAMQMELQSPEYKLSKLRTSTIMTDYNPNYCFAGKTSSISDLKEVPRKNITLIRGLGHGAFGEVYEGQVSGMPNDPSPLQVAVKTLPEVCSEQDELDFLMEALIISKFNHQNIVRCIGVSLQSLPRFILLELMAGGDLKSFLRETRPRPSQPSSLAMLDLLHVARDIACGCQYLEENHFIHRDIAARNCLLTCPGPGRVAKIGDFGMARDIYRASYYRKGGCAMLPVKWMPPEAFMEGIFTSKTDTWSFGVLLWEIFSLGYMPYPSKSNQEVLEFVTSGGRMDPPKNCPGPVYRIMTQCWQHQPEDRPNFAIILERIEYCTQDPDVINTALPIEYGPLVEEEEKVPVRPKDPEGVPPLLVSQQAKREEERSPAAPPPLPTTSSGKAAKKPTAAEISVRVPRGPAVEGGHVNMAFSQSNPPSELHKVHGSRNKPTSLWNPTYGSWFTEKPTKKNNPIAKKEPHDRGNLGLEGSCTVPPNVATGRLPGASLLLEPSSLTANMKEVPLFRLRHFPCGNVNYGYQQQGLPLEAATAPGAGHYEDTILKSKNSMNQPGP
Description: SU-DHL-1, NCI-H3122 and NCI-H2228 cells were cultured in RPMI-1640 medium supplemented with 10% fetal bovine serum, 50 μg/mL penicillin and streptomycin. Cells were cultured in a 37° C. incubator with 5% CO2.
Cells were washed with cold PBS once and lysed in 1× Laemmli loading buffer directly. Lysates were heated at 99° C. for […], and resolved on 4-15% precast SDS-PAGE (BIO-RAD) and transferred onto PVDF membrane. Membrane was blocked in 5% milk in Tris-buffered saline and Tween 20 (TBST) for 1 h at room temperature, followed by incubation with a primary antibody overnight at 4° C., and a horseradish peroxidase (HRP)-conjugated secondary antibody for 1 h at room temperature. The membrane was imaged by a ChemiDoc MP imaging system (BIO-RAD). Antibodies against GAPDH (abeam), Phospho-ALK (Tyr1507), ALK (Cell Signaling Technology), Tubulin (Santa Cruz) were purchased commercially. […]

SMILES | Dmax at 0.5 µM
Cc1cc(Nc2ncc(Cl)c(Nc3ccccc3S(=O)(=O)C(C)C)n2)c(OC(C)C)cc1C1CCN(C(=O)CCOCCC(=O)N[C@H](C(=O)N2C[C@H](O)C[C@H]2C(=O)NCc2ccc(-c3scnc3C)cc2)C(C)(C)C)CC1 [CZ47-14, (2S,4R)-1-((S)-2-(3-(3-(4-(4-((5-Chloro-4-((2-(isopropylsulfonyl)phenyl)amino)pyrimidin-2-yl)amino)-5-isopropoxy-2-methylphenyl)piperidin-1-yl)-3-oxopropoxy)propanamido)-3,3-dimethylbutanoyl)-4-hydroxy-N-(4-(4-methylthiazol-5-yl)benzyl)pyrrolidine-2-carboxamide] | 20 to 80%
Cc1cc(Nc2ncc(Cl)c(Nc3ccccc3S(=O)(=O)C(C)C)n2)c(OC(C)C)cc1C1CCN(C(=O)CCOCCOCCC(=O)N[C@H](C(=O)N2C[C@H](O)C[C@H]2C(=O)NCc2ccc(-c3scnc3C)cc2)C(C)(C)C)CC1 [CZ47-16, (2S,4R)-1-((S)-2-(3-(2-(3-(4-(4-((5-Chloro-4-((2-(isopropylsulfonyl)phenyl)amino)pyrimidin-2-yl)amino)-5-isopropoxy-2-methylphenyl)piperidin-1-yl)-3-oxopropoxy)ethoxy)propanamido)-3,3-dimethylbutanoyl)-4-hydroxy-N-(4-(4-methylthiazol-5-yl)benzyl)pyrrolidine-2-carboxamide] | < 20%
Cc1cc(Nc2ncc(Cl)c(Nc3ccccc3S(=O)(=O)C(C)C)n2)c(OC(C)C)cc1C1CCN(C(=O)COCCOCCOCC(=O)N[C@H](C(=O)N2C[C@H](O)C[C@H]2C(=O)NCc2ccc(-c3scnc3C)cc2)C(C)(C)C)CC1 [CZ47-17, (2S,4R)-1-((S)-2-(tert-Butyl)-14-(4-(4-((5-chloro-4-((2-(isopropylsulfonyl)phenyl)amino)pyrimidin-2-yl)amino)-5-isopropoxy-2-methylphenyl)piperidin-1-yl)-4,14-dioxo-6,9,12-trioxa-3-azatetradecanoyl)-4-hydroxy-N-(4-(4-methylthiazol-5-yl)benzyl)pyrrolidine-2-carboxamide] | < 20%
Cc1cc(Nc2ncc(Cl)c(Nc3ccccc3S(=O)(=O)C(C)C)n2)c(OC(C)C)cc1C1CCN(C(=O)CCOCCOCCOCCC(=O)N[C@H](C(=O)N2C[C@H](O)C[C@H]2C(=O)NCc2ccc(-c3scnc3C)cc2)C(C)(C)C)CC1 [CZ47-18, (2S,4R)-1-((S)-2-(tert-Butyl)-16-(4-(4-((5-chloro-4-((2-(isopropylsulfonyl)phenyl)amino)pyrimidin-2-yl)amino)-5-isopropoxy-2-methylphenyl)piperidin-1-yl)-4,16-dioxo-7,10,13-trioxa-3-azahexadecanoyl)-4-hydroxy-N-(4-(4-methylthiazol-5-yl)benzyl)pyrrolidine-2-carboxamide] | < 20%
Cc1cc(Nc2ncc(Cl)c(Nc3ccccc3S(=O)(=O)C(C)C)n2)c(OC(C)C)cc1C1CCN(C(=O)CCOCCOCCOCCOCCC(=O)N[C@H](C(=O)N2C[C@H](O)C[C@H]2C(=O)NCc2ccc(-c3scnc3C)cc2)C(C)(C)C)CC1 [CZ47-19, (2S,4R)-1-((S)-2-(tert-Butyl)-19-(4-(4-((5-chloro-4-((2-(isopropylsulfonyl)phenyl)amino)pyrimidin-2-yl)amino)-5-isopropoxy-2-methylphenyl)piperidin-1-yl)-4,19-dioxo-7,10,13,16-tetraoxa-3-azanonadecanoyl)-4-hydroxy-N-(4-(4-methylthiazol-5-yl)benzyl)pyrrolidine-2-carboxamide] | < 20%
Cc1cc(Nc2ncc(Cl)c(Nc3ccccc3S(=O)(=O)C(C)C)n2)c(OC(C)C)cc1C1CCN(C(=O)COCCOCCOCCOCCOCC(=O)N[C@H](C(=O)N2C[C@H](O)C[C@H]2C(=O)NCc2ccc(-c3scnc3C)cc2)C(C)(C)C)CC1 [CZ47-20, (2S,4R)-1-((S)-2-(tert-Butyl)-20-(4-(4-((5-chloro-4-((2-(isopropylsulfonyl)phenyl)amino)pyrimidin-2-yl)amino)-5-isopropoxy-2-methylphenyl)piperidin-1-yl)-4,20-dioxo-6,9,12,15,18-pentaoxa-3-azaicosanoyl)-4-hydroxy-N-(4-(4-methylthiazol-5-yl)benzyl)pyrrolidine-2-carboxamide] | < 20%

Other lines, results leading:

Dmax at 0.5 µM | SMILES
< 20% | Cc1cc(Nc2ncc(Cl)c(Nc3ccccc3S(=O)(=O)C(C)C)n2)c(OC(C)C)cc1C1CCN(C(=O)CCOCCOCCOCCOCCOCCC(=O)N[C@H](C(=O)N2C[C@H](O)C[C@H]2C(=O)NCc2ccc(-c3scnc3C)cc2)C(C)(C)C)CC1 [CZ47-21, (2S,4R)-1-((S)-2-(tert-Butyl)-22-(4-(4-((5-chloro-4-((2-(isopropylsulfonyl)phenyl)amino)pyrimidin-2-yl)amino)-5-isopropoxy-2-methylphenyl)piperidin-1-yl)-4,22-dioxo-7,10,13,16,19-pentaoxa-3-azadocosanoyl)-4-hydroxy-N-(4-(4-methylthiazol-5-yl)benzyl)pyrrolidine-2-carboxamide]
20 to 80% | Cc1cc(Nc2ncc(Cl)c(Nc3ccccc3S(=O)(=O)C(C)C)n2)c(OC(C)C)cc1C1CCN(C(=O)CCC(=O)N[C@H](C(=O)N2C[C@H](O)C[C@H]2C(=O)NCc2ccc(-c3scnc3C)cc2)C(C)(C)C)CC1 [CZ47-22, (2S,4R)-1-((S)-2-(4-(4-(4-((5-Chloro-4-((2-(isopropylsulfonyl)phenyl)amino)pyrimidin-2-yl)amino)-5-isopropoxy-2-methylphenyl)piperidin-1-yl)-4-oxobutanamido)-3,3-dimethylbutanoyl)-4-hydroxy-N-(4-(4-methylthiazol-5-yl)benzyl)pyrrolidine-2-carboxamide]
> 80% | Cc1cc(Nc2ncc(Cl)c(Nc3ccccc3S(=O)(=O)C(C)C)n2)c(OC(C)C)cc1C1CCN(C(=O)CCCCCC(=O)N[C@H](C(=O)N2C[C@H](O)C[C@H]2C(=O)NCc2ccc(-c3scnc3C)cc2)C(C)(C)C)CC1 [CZ47-25, (2S,4R)-1-((S)-2-(7-(4-(4-((5-Chloro-4-((2-(isopropylsulfonyl)phenyl)amino)pyrimidin-2-yl)amino)-5-isopropoxy-2-methylphenyl)piperidin-1-yl)-7-oxoheptanamido)-3,3-dimethylbutanoyl)-4-hydroxy-N-(4-(4-methylthiazol-5-yl)benzyl)pyrrolidine-2-carboxamide]
> 80% | Cc1cc(Nc2ncc(Cl)c(Nc3ccccc3S(=O)(=O)C(C)C)n2)c(OC(C)C)cc1C1CCN(C(=O)CCCCCCC(=O)N[C@H](C(=O)N2C[C@H](O)C[C@H]2C(=O)NCc2ccc(-c3scnc3C)cc2)C(C)(C)C)CC1 [CZ47-26, (2S,4R)-1-((S)-2-(8-(4-(4-((5-Chloro-4-((2-(isopropylsulfonyl)phenyl)amino)pyrimidin-2-yl)amino)-5-isopropoxy-2-methylphenyl)piperidin-1-yl)-8-oxooctanamido)-3,3-dimethylbutanoyl)-4-hydroxy-N-(4-(4-methylthiazol-5-yl)benzyl)pyrrolidine-2-carboxamide]
> 80% | Cc1cc(Nc2ncc(Cl)c(Nc3ccccc3S(=O)(=O)C(C)C)n2)c(OC(C)C)cc1C1CCN(C(=O)CCCCCCCC(=O)N[C@H](C(=O)N2C[C@H](O)C[C@H]2C(=O)NCc2ccc(-c3scnc3C)cc2)C(C)(C)C)CC1 [CZ47-27, (2S,4R)-1-((S)-2-(9-(4-(4-((5-Chloro-4-((2-(isopropylsulfonyl)phenyl)amino)pyrimidin-2-yl)amino)-5-isopropoxy-2-methylphenyl)piperidin-1-yl)-9-oxononanamido)-3,3-dimethylbutanoyl)-4-hydroxy-7V-(4-(4-methylthiazol-5-yl)benzyl)pyrrolidine-2-carboxamide]
< 20% | Cc1cc(Nc2ncc(Cl)c(Nc3ccccc3S(=O)(=O)C(C)C)n2)c(OC(C)C)cc1C1CCN(C(=O)CCCCCCCCC(=O)N[C@H](C(=O)N2C[C@H](O)C[C@H]2C(=O)NCc2ccc(-c3scnc3C)cc2)C(C)(C)C)CC1 [CZ47-28, (2S,4R)-1-((S)-2-(10-(4-(4-((5-Chloro-4-((2-(isopropylsulfonyl)phenyl)amino)pyrimidin-2-yl)amino)-5-isopropoxy-2-methylphenyl)piperidin-1-yl)-10-oxodecanamido)-3,3-dimethylbutanoyl)-4-hydroxy-N-(4-(4-methylthiazol-5-yl)benzyl)pyrrolidine-2-carboxamide]
< 20% | Cc1cc(Nc2ncc(Cl)c(Nc3ccccc3S(=O)(=O)C(C)C)n2)c(OC(C)C)cc1C1CCN(C(=O)CCCCCCCCCC(=O)N[C@H](C(=O)N2C[C@H](O)C[C@H]2C(=O)NCc2ccc(-c3scnc3C)cc2)C(C)(C)C)CC1 [CZ47-29, (2S,4R)-1-((S)-2-(ll-(4-(4-((5-Chloro-4-((2-(isopropylsulfonyl)phenyl)amino)pyrimidin-2-yl)amino)-5-isopropoxy-2-methylphenyl)piperidin-1-yl)-11-oxoundecanamido)-3,3-dimethylbutanoyl)-4-hydroxy-N-(4-(4-methylthiazol-5-yl)benzyl)pyrrolidine-2-carboxamide]
